What was measured:
[1] = target: T1, biotinylated AVI-tagged EED (76-441) (Homo sapiens, UniProt O75530); experiment: EED binding SPR assay; settings: 1:1 binding model; read-out: KD, equilibrium dissociation constant as measured by surface plasmon resonance (SPR)
T1 construct: GST (N, cleaved yes); made in house; host or cells: E. coli BL21(DE3), co-expressed with pGro7
In short: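 Biotinylated AVI-EED(76-441) from E. coli was captured on Biotin CAPture chips (2200–2400 RU) in 10 mM HEPES pH 7.4, 150 mM NaCl, 0.05% Tween 20 and 2% DMSO. Compounds were run at 7 concentrations (3-fold dilutions) with 90 s association and 180 s dissociation, chip at 25 °C. Data were fitted to a 1:1 binding model.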

EZH2/PRC2 complex = EZH2/PRC2 complex (Homo sapiens, UniProt O75530); experiment: Histone methyltransferase assay (radioisotope-based HotSpot); assay type: biochemical; settings: EZH2/PRC2 complex 10 nM, core histone substrate 0.05 mg/ml, 3H-SAM 1 μM; read-out: IC50, inhibitory effects on the HMT enzyme
Chain of EZH2/PRC2 complex (O75530 whole entry): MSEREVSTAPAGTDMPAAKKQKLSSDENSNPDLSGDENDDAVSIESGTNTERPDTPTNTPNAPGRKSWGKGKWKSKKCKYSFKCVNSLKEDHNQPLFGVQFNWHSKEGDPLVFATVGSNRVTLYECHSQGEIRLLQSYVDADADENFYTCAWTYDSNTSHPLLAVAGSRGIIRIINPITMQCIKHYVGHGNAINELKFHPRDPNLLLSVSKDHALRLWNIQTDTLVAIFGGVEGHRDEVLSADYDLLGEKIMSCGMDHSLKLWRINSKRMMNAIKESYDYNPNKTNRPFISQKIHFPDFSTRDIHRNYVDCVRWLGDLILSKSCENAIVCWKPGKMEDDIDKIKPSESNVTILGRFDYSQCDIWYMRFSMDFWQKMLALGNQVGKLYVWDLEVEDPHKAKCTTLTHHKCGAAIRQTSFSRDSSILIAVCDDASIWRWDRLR
Chain of EZH2/PRC2 complex (Q15910 whole entry partner): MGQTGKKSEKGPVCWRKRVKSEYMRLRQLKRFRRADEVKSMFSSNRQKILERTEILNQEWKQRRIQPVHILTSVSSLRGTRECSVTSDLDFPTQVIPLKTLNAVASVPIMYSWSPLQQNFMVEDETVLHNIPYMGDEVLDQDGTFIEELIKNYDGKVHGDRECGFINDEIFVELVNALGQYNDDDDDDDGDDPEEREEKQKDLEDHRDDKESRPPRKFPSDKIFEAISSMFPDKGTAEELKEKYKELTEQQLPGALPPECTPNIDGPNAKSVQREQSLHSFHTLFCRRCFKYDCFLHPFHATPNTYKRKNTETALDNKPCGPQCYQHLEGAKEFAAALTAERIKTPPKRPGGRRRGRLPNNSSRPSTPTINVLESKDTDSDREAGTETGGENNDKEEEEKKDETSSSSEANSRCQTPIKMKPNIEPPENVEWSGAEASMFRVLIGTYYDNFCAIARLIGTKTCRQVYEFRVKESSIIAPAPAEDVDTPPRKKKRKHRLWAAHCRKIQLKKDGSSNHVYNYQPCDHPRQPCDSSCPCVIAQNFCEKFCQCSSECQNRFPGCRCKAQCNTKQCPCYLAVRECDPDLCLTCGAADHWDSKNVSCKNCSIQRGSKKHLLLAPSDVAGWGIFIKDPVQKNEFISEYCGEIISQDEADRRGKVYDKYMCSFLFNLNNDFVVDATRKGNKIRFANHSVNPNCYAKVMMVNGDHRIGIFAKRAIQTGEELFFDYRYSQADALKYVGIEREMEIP
Chain of EZH2/PRC2 complex (Q15022 whole entry partner): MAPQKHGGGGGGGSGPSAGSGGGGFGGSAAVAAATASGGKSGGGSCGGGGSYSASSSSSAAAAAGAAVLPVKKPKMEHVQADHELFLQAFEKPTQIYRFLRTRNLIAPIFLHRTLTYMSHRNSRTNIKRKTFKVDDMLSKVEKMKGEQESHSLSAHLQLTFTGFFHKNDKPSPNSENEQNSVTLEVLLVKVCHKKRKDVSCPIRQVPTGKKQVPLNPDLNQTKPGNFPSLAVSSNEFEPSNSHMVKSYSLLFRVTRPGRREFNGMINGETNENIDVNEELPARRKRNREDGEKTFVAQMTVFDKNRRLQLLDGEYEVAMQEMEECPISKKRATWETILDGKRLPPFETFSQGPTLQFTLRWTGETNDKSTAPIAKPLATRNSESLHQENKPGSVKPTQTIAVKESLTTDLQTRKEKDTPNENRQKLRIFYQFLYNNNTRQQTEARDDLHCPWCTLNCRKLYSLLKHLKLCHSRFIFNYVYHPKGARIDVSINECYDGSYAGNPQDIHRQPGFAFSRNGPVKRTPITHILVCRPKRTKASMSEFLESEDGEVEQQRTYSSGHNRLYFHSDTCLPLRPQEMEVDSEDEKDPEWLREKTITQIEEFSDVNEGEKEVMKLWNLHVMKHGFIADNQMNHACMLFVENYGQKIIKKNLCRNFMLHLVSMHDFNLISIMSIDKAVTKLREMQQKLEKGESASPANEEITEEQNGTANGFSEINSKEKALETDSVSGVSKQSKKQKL
Protocol: Effect of compounds of the present disclosure on EZH2/PRC2 complex methyltransferase functional activity was measured using the radioisotope-based HotSpot assay described by Horiuchi, K. Y., et al. Assay Drug Dev Technol. 11(4):227-36 (2013). Briefly, compounds were prepared in a 10-point 3-fold serial dilution in DMSO from a 10 mM stock in ECHO qualified plate using Assist Plus (Integra Biosciences) liquid handler. […] Nanoliter quantities of each compound's concentration series were transferred into the enzyme/substrate mix using (Echo 550, LabCyte Inc. Sunnyvale, Calif.) acoustic dispenser and pre-incubated for 20 min at room temperature. The methylation reaction was initiated by the addition of 1 μl of 5 μM S-Adenosyl-L-[methyl-^3H]methionine (^3H-SAM) and incubated at 30° C. for 1 h. The final concentration of the EZH2/PRC2 complex, core histone substrate and ^3H-SAM were 10 nM, 0.05 mg/ml, and 1 μM respectively. The % activity of test samples were calculated with reference to positive (no compound) and negative (no EZH2/PRC2) controls on the plate using Excel (Microsoft). The resulting values were exported to Prism (GraphPad software) to generate concentration response curves and IC50 values using the four-parameter logistic equation.

T1 sequence (O75530 76-441 limits assumed): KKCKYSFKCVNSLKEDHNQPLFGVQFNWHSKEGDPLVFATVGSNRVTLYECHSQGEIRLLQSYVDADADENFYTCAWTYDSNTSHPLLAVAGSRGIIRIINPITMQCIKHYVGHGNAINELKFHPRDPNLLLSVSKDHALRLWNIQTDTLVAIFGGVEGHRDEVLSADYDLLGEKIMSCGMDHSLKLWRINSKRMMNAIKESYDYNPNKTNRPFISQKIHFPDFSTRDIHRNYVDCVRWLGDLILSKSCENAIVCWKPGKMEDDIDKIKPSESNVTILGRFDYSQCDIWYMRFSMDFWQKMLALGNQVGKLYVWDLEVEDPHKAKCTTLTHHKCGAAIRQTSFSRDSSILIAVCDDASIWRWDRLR

| Compound | Kd [1] | IC50 (EZH2/PRC2 complex) |
| --- | --- | --- |
| Cc1ncccc1-c1cc2c(n3cc(C(N)=O)nc13)NCc1c(F)ccc3c1[C@@H](CO3)CO2 [Compound 176, (S)-5-fluoro-12-(2-methylpyridin-3-yl)-6,7,15,15a-tetrahydro-1H-benzofuro[4,3-fg]imidazo[r,2′:1,6]pyrido[3,2-b][1,4]oxazonine-10-carboxamide] | 10 to 50 nM | 25 to 50 nM |
| Cc1ncccc1-c1cc2c(n3cc(C#N)nc13)NCc1c(F)ccc3c1[C@@H](CO3)CO2 [Compound 186, (S)-5-fluoro-12-(2-methylpyridin-3-yl)-6,7,15,15a-tetrahydro-1H-benzofuro[4,3-fg]imidazo[1′,2′:1,6]pyrido[3,2-b][1,4]oxazonine-10-carbonitrile] | < 2.5 nM | < 25 nM |
| CN(CC(F)(F)F)C(=O)c1cc2c(n3cnnc13)NCc1c(F)ccc3c1C(CO3)CO2 (stereo not drawn) [Example 38] | 2.5 to 5 nM | < 25 nM |
| Cc1cc(C#N)ccc1-c1cc2c(n3cnnc13)NCc1c(F)ccc3c1[C@H](CO3)CO2 [Example 49] | < 2.5 nM | < 25 nM |

More lines, now with the values ahead:

| Kd [1] | IC50 (EZH2/PRC2 complex) | Compound |
| --- | --- | --- |
| < 2.5 nM | < 25 nM | Cc1ncoc1-c1cc2c(n3cnnc13)NCc1c(F)ccc3c1[C@@H](CO3)CO2 [Compound 189, (S)-12-fluoro-4-(4-methyloxazol-5-yl)-7a,8,13,14-tetrahydro-7H-[1,2,4]triazolo[4′,3′:1,6]pyrido[3,2-b]benzofuro[4,3-fg][1,4]oxazonine] |
| < 2.5 nM | < 25 nM | Cn1nccc1-c1cc2c(n3cnnc13)NCc1c(F)ccc3c1C(CO3)CO2 (stereo not drawn) [Example 17] |
| < 2.5 nM | < 25 nM | COc1ncc(-c2cc3c(n4cnnc24)NCc2c(F)ccc4c2[C@H](CO4)CO3)cn1 [Example 30] |
| < 2.5 nM | < 25 nM | CS(=O)(=O)c1ccc(-c2cc3c(n4cnnc24)NCc2c(F)ccc4c2C(CO4)CO3)cc1 (stereo not drawn) [Example 36] |
| < 2.5 nM | < 25 nM | Cn1nc(C(F)(F)F)cc1-c1cc2c(n3cnnc13)NCc1c(F)ccc3c1[C@H](CO3)CO2 [Example 115] |

— US20220160686A1, “MACROCYCLIC AZOLOPYRIDINE DERIVATIVES AS EED AND PRC2 MODULATORS” (Fulcrum Therapeutics, Inc., priority 2019, published 2022)
